Data on one molecule can be found in patent US5814640A, “Method of treating gastrointestinal malignancies” (Montefiore Medical Center, priority 1997, dated 1998).

The test system of one assay is HT-29. The assay can be described thus: Cytokinetic studies (cell cycle distribution by flow cytometry), HT-29. In kind it is cell-based, human. (Flow cytometry measures light scatter and fluorescence of single cells or particles in a stream.)
The next assay deals with SW480. The assay can be described thus: Cytokinetic studies (cell cycle distribution by flow cytometry), SW480. In kind it is cell-based, human. On the procedure: Cells were cultured in RPMI 1640 with 10% fetal calf serum.
The DNA content of propidium-iodide stained nuclei was measured by flow cytometry. Cells in early exponential growth were incubated with or without drug, trypsinized and washed twice in PBS. A total of 10^6 viable cells, as determined by trypan blue exclusion, were permeabilized in sucrose-citrate-DMSO buffer as described by Vindelov et al., enucleated with trypsin and incubated with RNAse. Stripped nuclei were stained with propidium iodide at a final concentration of 2.5 ug/ml. Correlated dual parameter measurements of DNA content (from propidium-iodide red fluorescence excited at 488 nm) versus forward angle light scatter were performed using an EPICS C flow cytometer equipped with a 5W ultraviolet enhanced argon ion laser. Histograms consisting of a minimum of 10,000 nuclei were analyzed off-line with an EPICS C to RSX-11M conversion program (EPICOPY) and subsequently analyzed with ROMP and ROC3D programs rewritten for a DEC 11/73 computer. Cell cycle analysis for the compartmental boundaries and number of cells in the G1, S, and G2M phases was performed on ROMP-readable files using either a multiple gaussian fitting routine developed by Dean et al. or, for the perturbed histograms, a parametric method based on multiple broadened rectangles.

The next assay deals with colorectal cancer. Conditions: cited from earlier work.
Where [1] appears, read: 5-fluorouracil 50-500 uM, 24 hour incubation.
Setting [2] is: alone or in combination, data not shown.

Procedure for HT-29: Cells were cultured in RPMI 1640 with 10% fetal calf serum. Doubling times for these cell lines are 18 and 25 hours.
The DNA content of propidium-iodide stained nuclei was measured by flow cytometry. Cells in early exponential growth were incubated with or without drug, trypsinized and washed twice in PBS. A total of 10^6 viable cells, as determined by trypan blue exclusion, were permeabilized in sucrose-citrate-DMSO buffer as described by Vindelov et al., enucleated with trypsin and incubated with RNAse. Stripped nuclei were stained with propidium iodide at a final concentration of 2.5 ug/ml. Correlated dual parameter measurements of DNA content (from propidium-iodide red fluorescence excited at 488 nm) versus forward angle light scatter were performed using an EPICS C flow cytometer equipped with a 5W ultraviolet enhanced argon ion laser. Histograms consisting of a minimum of 10,000 nuclei were analyzed off-line with an EPICS C to RSX-11M conversion program (EPICOPY) and subsequently analyzed with ROMP and ROC3D programs rewritten for a DEC 11/73 computer. Cell cycle analysis for the compartmental boundaries and number of cells in the G1, S, and G2M phases was performed on ROMP-readable files using either a multiple gaussian fitting routine developed by Dean et al. or, for the perturbed histograms, a parametric method based on multiple broadened rectangles. […]

`O=c1[nH]cc(F)c(=O)[nH]1` [5-fluorouracil]: the “G2M compartment, dose response” value in the assay on HT-29 (setting [1]) is listed as “nearly complete depletion of G2M”. Besides, the “time of G2M depletion from start of incubation” value with HT-29 (time course, 5-fluorouracil 50 uM, alpha-2a-interferon 500 U/ml) is at most 7 h. For the same molecule, the “G2M compartment, dose response” value in the assay with SW480 (setting [1]) is recorded as “nearly complete depletion of G2M”. In the assay with SW480 (24 hours, alone or in combination, data not shown), the “accumulation of cells in S and G2M” value is “concomitant decrease in the accumulation of cells in S and G2M at 24 hours”. Further, in the assay with SW480 (setting [2]), the “block in G0/G1” value is “prolongation of the block in G0/G1 to 24 hours” and the “effects on cell cycle distribution compared with HT-29” value is “qualitatively identical effects”. The “median survival of treated patients” value with colorectal cancer (compared with untreated controls) is reported as “no better than that of untreated controls”. For the same molecule, the remissions in patients in the assay with colorectal cancer (disseminated colorectal cancer) was 15-35 % of patients.
